# Patent US9150505B2, “Prophylactic or therapeutic agent for diabetes or obesity” (AJINOMOTO CO., INC., priority 2010, dated 2015)
# Legend:
# [1] = tested on: NCI-H716 cells; test: Promotion of GLP-1 secretion in NCI-H716 cells; assay type: cell-based, human; conditions: 30 minutes at 37° C., buffer assumed to be 1.0
# Description: Human appendix-derived cell line NCI-H716 (ATCC No CCL-251) was cultured in a 10% FBS-containing DMEM/HamF-12 medium at 37° C. in the presence of 5% CO2. NCI-H716 cells were seeded in a poly-D-lysine-coated 96-well plate at 100,000 cells/well and cultured for two days. Prior to sample addition, wells were washed with Hepes buffer (20 mM Hepes, 146 mM NaCl, 5 mM KCl, 1.5 mM CaCl2, 1 mM MgSO4, 5.5 mM D-glucose, 0.2% BSA, pH 7.4). Fifty μl of a sample solution dissolved in the same buffer was added and incubated at 37° C. for 30 minutes. The above-described compounds in Example 6 (Compound 1) (10 mM), Example 48 (Compound 2) (5 mM) and Example 14 (Compound 3) (2 mM) were used as the samples. In addition, a Hepes buffer was used as a control. After collecting the supernatant, the cells were precipitated by centrifugation (5,000×g, 1 min.) to collect the supernatant thereof. GLP-1 level in the supernatant was determined as described below according to a quantitative method for GLP-1 that uses GLP-1 receptor gene expression cells.
# According to a routine method (Lopez de Maturana R, Willshaw A, Kuntzsch A, Rudolph R, Donnelly D. J Biol Chem. 2003 Mar. 21; 278 (12):10195-200), human GLP-1 receptor gene (Nucleotide sequence 1) was integrated into pcDNA3.1 to prepare human GLP-1 receptor gene expression plasmid hGLP-1R/pcDNA3.1. Moreover, chimeric gene (Nucleotide sequence 2) of human Gα15 gene and human gustducin gene was integrated into pcDNA3.1 to prepare G protein expression plasmid Gα15-gust/pcDNA3.1. […] After 24 hours of cultivation in a CO2 incubator, changes in the fluorescence intensity were determined starting immediately after sample addition according to the Ca^2+ fluorescence indicator FLIPR Calcium 4 Assay Kit protocol (Molecular Devices) using FlexStation (Molecular Devices). Concentration dependency of human GLP-1 (7-36 Amide; Peptide Institute) with respect to the changes in the fluorescence intensity was determined and used as a standard curve for quantitating the sample. […]
# [2] = tested on: normal mice (C57BL/6J); test: Effects on gastric emptying using mouse (phenol red method); assay type: in vivo; conditions: 2.4 nmol/kg subcutaneously, 24 h fasted mice, phenol red 15 min after drug, stomach resected 20 min later; vehicle 82.4 ± 7.0%
# Description: A dosing vehicle (distilled water) or 3 mg/kg of the compound in Example 6 (Compound 1) was orally administered in a forced manner using a mouse sonde to normal mice (C57BL/6J, 7-week-old) after 24 hours of fasting. As positive controls, a group subcutaneously injected with Exendin-4 (Sigma) (2.4 nmol/kg) that was known to have an effect of suppressing gastric emptying was also prepared. 10 ml/kg of dosing vehicle was also orally administered to the mice of the Exendin-4 group. Fifteen minutes after drug administration, phenol red solution (0.5 mg/ml phenol red+1.5% methylcellulose+distilled water) was orally administered in a forced manner at a volume of 5 ml/kg. After another 20 minutes, the stomach was resected from each mouse and phenol red remaining in the stomach was extracted in 0.1N NaOH solution. Absorbance of the extracted solution was determined at 560 nm to quantitate the amount of remaining phenol red (S). While the amount of phenol red (C) extracted from the stomach resected immediately after the administration of phenol red was assumed to be 100%, the amount of remaining phenol red […] with respect to C was calculated, as a gastric emptying volume (%), based on the following expression. Gastric emptying volume(%)=(1−(S/C))×100
# [3] = tested on: NCI-H716 cells; test: Promotion of CCK secretion in NCI-H716 cells; assay type: cell-based, human
# Description: Human appendix-derived cell line NCI-H716 (ATCC No CCL-251) was cultured in a 10% FBS-containing DMEM/HamF-12 medium at 37° C. in the presence of 5% CO2. NCI-H716 cells were seeded in a poly-D-lysine-coated 24-well plate at 600,000 cells/well and cultured for two days. Prior to sample addition, wells were washed with Hepes buffer (20 mM Hepes, 146 mM NaCl, 5 mM KCl, 1.5 mM CaCl2, 1 mM MgSO4, 5.5 mM D-glucose, 0.02% BSA, pH 7.4). 300 μl of a sample solution dissolved in the same buffer was added and incubated at 37° C. for 30 minutes. Compound 1 in Example 6 (2 mM) and Compound 2 in Example 48 (1 mM) were used as the samples. In addition, a Hepes buffer was used as a control. After collecting the supernatant, the cells were precipitated by centrifugation (5,000×g, 1 min.) to collect the supernatant thereof, which was lyophilized in Speed Vac Concentrator (SAVANT) and dissolved by addition of 60 μl of water. CCK level in the solution was determined using Enzyme immuno assay kit (EK-069-04; PHENOIX PHARMACEUTICALS).
compound,measurement,setting,value
"Cc1c(Cl)cc(S(=O)(=O)O)cc1NC(=O)NC[C@H](N)C(=O)O [Example 14, (2S)-2-amino-3-{[(3-chloro-2-methyl-5-sulfophenyl)carbamoyl]amino}propanoic acid]",Relative secretion volumes (GLP-1),[1]; 2 mM,3.54
"Exendin-4: Positive control (Sigma), known to have an effect of suppressing gastric emptying",Gastric emptying volume,[2],51.2 ± 4.2% (*)
"Cc1c(Cl)cc(NC(=S)NC[C@H](N)C(=O)O)cc1S(=O)(=O)O [Example 48, (2S)-2-amino-3-{[(3-chloro-4-methyl-5-sulfophenyl)carbamothioyl]amino}propanoic acid]",Relative secretion volumes (GLP-1),[1]; 5 mM,15.42
same,Relative secretion volumes (CCK),"[3]; 1 mM, 30 minutes at 37° C., buffer assumed to be 1.0",2.22
same,effect of promoting CCK secretion,[3]; result in words,confirmed to have an effect of promoting CCK secretion
